Among the test systems are SK-MEL-5 melanoma; CAKI-1 renal; HCT-116 colon; UACC-62 melanoma; SF-539 CNS; TK-10 renal; UO-31 renal; OVCAR-3 ovarian; SW-620 colon; NCI-H23 lung.
Experiment in all cases: growth of human tumour cells (NCI), 48 h

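Interpolation was linear, between the two tested concentrations surrounding the appropriate level; five concentrations were tested over 48 hours in 96-well plates. GI50 = concentration required for 50% inhibition of growth. TGI: concentration producing complete growth inhibition.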

This is an account of results in PubChem BioAssay (NCI).

For `CC(C)C[C@@H]1NC(=O)[C@@H]2CCCN2C(=O)[C@@H]2CCCN2C(=O)[C@H](CC(C)C)NC(=O)[C@H](CO)NC(=O)[C@H](CCCCN)NC(=O)[C@H]([C@H](C)O)NC(=O)[C@@H]2CCCC[C@@H](NC1=O)C(=O)N[C@@H](Cc1ccccc1)C(=O)N1CCC[C@H]1C(=O)N[C@@H](CC(=O)O)C(=O)NCC(=O)N[C@@H](CCCN=C(N)N)C(=O)N2`, the GI50 in the assay on SK-MEL-5 melanoma, in the assay with CAKI-1 renal, in the assay on HCT-116 colon, with UACC-62 melanoma, in the assay on SF-539 CNS and with TK-10 renal was above 50 µM in each case. For the same molecule, the GI50 with UO-31 renal, in the assay on OVCAR-3 ovarian, with SW-620 colon and in the assay on NCI-H23 lung was above 50 µM each time. Moreover, the TGI in the assay with SK-MEL-5 melanoma, in the assay on CAKI-1 renal, in the assay on HCT-116 colon, with UACC-62 melanoma, in the assay on SF-539 CNS and in the assay on TK-10 renal was above 50 µM each time. The TGI in the assay on UO-31 renal, in the assay on OVCAR-3 ovarian, with SW-620 colon and in the assay on NCI-H23 lung was above 50 µM throughout.

For the molecule `C=CC(=O)Nc1cccc(C)c1Nc1ncc2cc(-c3c(Cl)c(OC)cc(OC)c3Cl)ccc2n1`, the GI50 with SK-MEL-5 melanoma was 2.61 µM; with CAKI-1 renal, 8.39 µM; with HCT-116 colon it was 6.36 µM; in the assay with UACC-62 melanoma, 7.96 µM; in the assay with SF-539 CNS it was 1.38 µM; in the assay on TK-10 renal, 3.25 µM. Moreover, the GI50 with UO-31 renal was 3.66 µM; in the assay on OVCAR-3 ovarian, 2.78 µM; in the assay with SW-620 colon it was 3.9 µM; in the assay with NCI-H23 lung, 9.31 µM. The TGI in the assay on SK-MEL-5 melanoma was 9.63 µM; with CAKI-1 renal it was above 100 µM; in the assay with HCT-116 colon it was 24.9 µM; with UACC-62 melanoma, 42.9 µM; with SF-539 CNS, 10.8 µM; in the assay with TK-10 renal, 22.1 µM. The TGI in the assay with UO-31 renal was determined as 61.5 µM; with OVCAR-3 ovarian, 13.1 µM; in the assay with SW-620 colon, 39.5 µM; with NCI-H23 lung, 34.2 µM.

`COc1ccc2c(c1)CC1c3c(cc4c(c3-2)OCO4)CCN1C` (centres undefined): the TGI was 30.6 µM in the assay with SK-MEL-5 melanoma; 60.2 µM with CAKI-1 renal; 70.6 µM with HCT-116 colon; 47.6 µM in the assay on UACC-62 melanoma; above 100 µM in the assay with SF-539 CNS; 71.3 µM in the assay with TK-10 renal. In addition, the TGI in the assay on UO-31 renal turned out to be 36.6 µM; with OVCAR-3 ovarian, 88.4 µM; in the assay on SW-620 colon, 59.8 µM; with NCI-H23 lung, 73.9 µM.

In the case of `COc1cc(/C=C2/C(=O)NC(Cc3cc(OC)c(OC)c(C)c3OC)C(=O)N2Cc2ccccc2)c(OC)c(C)c1OC` (centres undefined), the TGI with SK-MEL-5 melanoma, in the assay with CAKI-1 renal, in the assay on HCT-116 colon, in the assay on UACC-62 melanoma, in the assay with SF-539 CNS and in the assay with TK-10 renal was above 100 µM in each case. The TGI with UO-31 renal, with OVCAR-3 ovarian, in the assay with SW-620 colon and in the assay with NCI-H23 lung was above 100 µM throughout.

For `CN(C)c1ccc(O)c2c1C[C@H]1C[C@H]3[C@H](N(C)C)C(=O)C(C(N)=O)=C(O)[C@@]3(O)C(=O)C1=C2O`, the GI50 was 3.38 µM in the assay with SK-MEL-5 melanoma; 2.16 µM in the assay with CAKI-1 renal; 3.86 µM in the assay on HCT-116 colon; 3.35 µM with UACC-62 melanoma; 3.88 µM with SF-539 CNS; 16 µM in the assay on TK-10 renal. The GI50 with UO-31 renal was 3.65 µM; with OVCAR-3 ovarian, 4.92 µM; in the assay on SW-620 colon it was 5.84 µM; in the assay with NCI-H23 lung it was 4.95 µM. Moreover, the TGI in the assay on SK-MEL-5 melanoma is 14.7 µM; in the assay with CAKI-1 renal, 20.9 µM; in the assay on HCT-116 colon, 35 µM; in the assay with UACC-62 melanoma, 16.9 µM; with SF-539 CNS it was 15.5 µM; in the assay on TK-10 renal, above 100 µM. In addition, the TGI was 79.8 µM with UO-31 renal, 39.5 µM with OVCAR-3 ovarian, above 100 µM in the assay on SW-620 colon and 39.7 µM in the assay with NCI-H23 lung.

Regarding `C/C(=C\CC[C@]1(C)OC(C)(C)OC1CC/C(C)=C/CO[Si](c1ccccc1)(c1ccccc1)C(C)(C)C)CC/C=C/CO[Si](C)(C)C(C)(C)C` (some centres undefined), the TGI in the assay with SK-MEL-5 melanoma, in the assay with CAKI-1 renal, in the assay with HCT-116 colon, in the assay with UACC-62 melanoma, in the assay with SF-539 CNS and with TK-10 renal was above 100 µM each time. Moreover, the TGI in the assay on UO-31 renal, with OVCAR-3 ovarian, in the assay with SW-620 colon and with NCI-H23 lung was above 100 µM each time.

For the molecule `C=C(C)[C@H](O)C(O)CC(C)[C@@H]1CCC23CC12CCC1[C@@]2(C)CCC(OC(C)=O)C(C)(C)C2CC(OC2OC(COC(C)=O)C(O)C(O)C2O)[C@]13C` (some centres undefined), the TGI in the assay on CAKI-1 renal turned out to be 12.1 µM; in the assay on HCT-116 colon, 9.27 µM; in the assay on UACC-62 melanoma, 9.4 µM; in the assay with SF-539 CNS, 12.8 µM; in the assay with TK-10 renal, 12.5 µM; in the assay on UO-31 renal, 14.5 µM. Also, the TGI came out at 11.6 µM with OVCAR-3 ovarian, 12 µM in the assay with SW-620 colon and 14 µM in the assay with NCI-H23 lung.
